Source: patent US11026931B2, “Methods for the administration of certain VMAT2 inhibitors” (Neurocrine Biosciences, Inc., priority 2018, dated 2021)

Experiments:
[1] = target: T1, human VMAT1 transporter (Homo sapiens, UniProt P54219); test: Uptake in cells expressing VMAT1; format: cell-based; conditions: for inhibition of uptake through VMAT1: cells expressing VMAT1, test compounds at concentrations up to 10 μM; for effect on the uptake of monoamines through VMAT1: compared to reserpine
T1 construct: expressed in transfected cells
T1 sequence (P54219 1-525): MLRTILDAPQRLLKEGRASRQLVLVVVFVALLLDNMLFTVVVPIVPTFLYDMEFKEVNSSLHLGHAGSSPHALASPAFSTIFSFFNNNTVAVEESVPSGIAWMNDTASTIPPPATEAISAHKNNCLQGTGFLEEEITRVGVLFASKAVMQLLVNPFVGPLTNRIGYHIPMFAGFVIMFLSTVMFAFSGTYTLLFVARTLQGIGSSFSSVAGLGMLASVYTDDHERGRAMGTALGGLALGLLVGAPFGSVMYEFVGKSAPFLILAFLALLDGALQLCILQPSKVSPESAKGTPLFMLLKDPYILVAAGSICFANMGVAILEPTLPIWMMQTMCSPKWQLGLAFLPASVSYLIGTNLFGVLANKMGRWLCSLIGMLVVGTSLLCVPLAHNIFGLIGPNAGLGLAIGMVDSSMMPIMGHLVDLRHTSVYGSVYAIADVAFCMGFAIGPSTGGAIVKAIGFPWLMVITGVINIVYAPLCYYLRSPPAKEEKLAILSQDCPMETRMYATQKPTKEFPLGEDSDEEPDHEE

[2] = Plasma concentrations of circulating metabolites of VBZ; format: in vivo; conditions: metabolites formed from VBZ
[3] = test system: dopamine, serotonin and adrenergic receptor subtypes; test: Radioligand binding assays for monoamine receptor subtypes; conditions: for interaction with D1 and D2 receptors: radioligand binding assays and broad panel screen
[4] = test system: ptosis (adrenergic activation); test: In vivo surrogate measure: ptosis
[5] = test system: prolactin release from the pituitary, modulated through the D2 dopamine receptor; test: In vivo surrogate measure: prolactin release
[6] = Analysis of hypersensitivity and dermatological reactions (case reports); format: in vivo
Excerpt: A total of 17 cases of hypersensitivity reaction and/or dermatological findings and evidence for possible causal relationship with VBZ have been reported either spontaneously (6) or after solicitation (11). Of these 17 cases, 14 cases had both hypersensitivity reaction with dermatological findings (5 were serious and 9 were non-serious).

[7] = of the 14 cases with hypersensitivity reaction and dermatological findings

Row | Compound | inhibition of uptake through VMAT1 [1] | effect on the uptake of monoamines through VMAT1 [1] | induction of ptosis [4] | further results
1 | COc1cc2c(cc1OC)[C@H]1C[C@@H](OC(=O)[C@@H](N)C(C)(C)O)[C@H](CC(C)C)CN1CC2 [NBI-136110] | no significant inhibitory activity | no significant effect | – | half-lives of plasma concentration decline [2]: half-lives similar to VBZ
2 | COc1cc2c(cc1OC)[C@@H]1C[C@H](O)[C@@H](CC(C)C)CN1CC2 [S,S,S-DHTBZ] | – | – | – | interaction with D1 and D2 receptors [3]: interact with D1 and D2 receptors
3 | COc1cc2c(cc1OC)[C@H]1C[C@@H](O)[C@H](CC(C)C)CN1CC2 [R,R,R-DHTBZ, (2R, 3R,11bR)-3-isobutyl-9,10-dimethoxy-1,3,4,6,7,11b-hexahydro-2H-pyrido[2,1-a]isoquinolin-2-ol] | no significant inhibitory activity | no significant effect | induced ptosis in an equivalent manner | increase in serum prolactin levels [5]: induced a similar increase in serum prolactin levels as TBZ; half-lives of plasma concentration decline [2]: half-lives similar to VBZ; specificity for the VMAT2 transporter ([3]; versus monoamine receptor subtypes and transporters): high specificity
4 | COC(=O)[C@H]1[C@H]2C[C@@H]3c4[nH]c5cc(OC)ccc5c4CCN3C[C@H]2C[C@@H](OC(=O)c2cc(OC)c(OC)c(OC)c2)[C@@H]1OC [reserpine, reference compound] | substantially inhibited uptake through VMAT1 | – | – | –
5 | COc1cc2c(cc1OC)[C@@H]1C[C@@H](O)[C@@H](CC(C)C)CN1CC2 [R,S,S-DHTBZ] | – | – | – | interaction with D1 and D2 receptors [3]: interact with D1 and D2 receptors
6 | COc1cc2c(cc1OC)[C@H]1C[C@@H](OC(=O)[C@@H](N)C(C)C)[C@H](CC(C)C)CN1CC2 [Valbenazine, (S)-2-amino-3-methyl-butyric acid (2R, 3R,11 bR)-3-isobutyl-9,10-dimethoxy-1,3,4,6,7,11b-hexahydro-2H-pyrido[2,1-a]isoquinolin-2-yl ester] | no significant inhibitory activity | no significant effect | induced ptosis in an equivalent manner | association with hypersensitivity reactions ([6]; case reports received through 10 Oct. 2017): may be associated with hypersensitivity reactions with or without dermatological reactions; non-serious cases [6, 7]: 9 cases; serious cases [6, 7]: 5 cases; cases with both hypersensitivity reaction and dermatological findings ([6]; of the 17 cases): 14 cases
7 | COc1cc2c(cc1OC)C1CC(=O)C(CC(C)C)CN1CC2 (racemic) [TBZ, 1,3,4,6,7, 11b-hexahydro-9,1O-dimethoxy-3-(2-methylpropyl)-2H-benzo(a)quinolizin-2-one, reference compound] | no significant inhibitory activity | no significant effect | induced ptosis in an equivalent manner | increase in serum prolactin levels [5]: increase in serum prolactin levels
